ChEMBL document CHEMBL1201862, “PubChem BioAssay data set” (2004)
Calls of active or inactive are those of the source. Cut-off read from the data, not from the text of the source, for most assays here: actives have a measured EC50 and inactives only a lower limit.

Assays:
Paired box protein Pax-8 = Paired box protein Pax-8 (Homo sapiens, UniProt Q06710); assay: inhibitors of PAX8-driven TPO luciferase reporter, dose response, RMG-I cells, cherry-pick (AID 687027); format: functional, cell-based;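 note: luciferase reporter driven by Pax8 target thyroperoxidase promoter measured by SteadyGlo luminescence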
Chain of Paired box protein Pax-8 (Q06710 whole entry): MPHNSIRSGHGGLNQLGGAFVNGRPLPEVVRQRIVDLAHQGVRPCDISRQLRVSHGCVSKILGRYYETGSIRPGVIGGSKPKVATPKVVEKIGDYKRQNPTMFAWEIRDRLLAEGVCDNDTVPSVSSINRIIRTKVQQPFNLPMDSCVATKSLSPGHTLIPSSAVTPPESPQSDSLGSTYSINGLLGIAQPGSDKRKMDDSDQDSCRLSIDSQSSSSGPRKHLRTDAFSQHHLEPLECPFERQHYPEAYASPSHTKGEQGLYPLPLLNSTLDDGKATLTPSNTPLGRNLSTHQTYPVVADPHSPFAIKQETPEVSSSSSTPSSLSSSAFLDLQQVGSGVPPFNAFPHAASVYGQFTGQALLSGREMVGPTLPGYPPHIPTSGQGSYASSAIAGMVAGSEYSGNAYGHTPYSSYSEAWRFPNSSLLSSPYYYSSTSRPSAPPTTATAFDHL

Cytochrome P450 3A4 = Cytochrome P450 3A4 (Homo sapiens, UniProt P08684);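 note: CYP3A4 tested as one member of a cytochrome P450 panel screen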
Chain of Cytochrome P450 3A4 (P08684 whole entry): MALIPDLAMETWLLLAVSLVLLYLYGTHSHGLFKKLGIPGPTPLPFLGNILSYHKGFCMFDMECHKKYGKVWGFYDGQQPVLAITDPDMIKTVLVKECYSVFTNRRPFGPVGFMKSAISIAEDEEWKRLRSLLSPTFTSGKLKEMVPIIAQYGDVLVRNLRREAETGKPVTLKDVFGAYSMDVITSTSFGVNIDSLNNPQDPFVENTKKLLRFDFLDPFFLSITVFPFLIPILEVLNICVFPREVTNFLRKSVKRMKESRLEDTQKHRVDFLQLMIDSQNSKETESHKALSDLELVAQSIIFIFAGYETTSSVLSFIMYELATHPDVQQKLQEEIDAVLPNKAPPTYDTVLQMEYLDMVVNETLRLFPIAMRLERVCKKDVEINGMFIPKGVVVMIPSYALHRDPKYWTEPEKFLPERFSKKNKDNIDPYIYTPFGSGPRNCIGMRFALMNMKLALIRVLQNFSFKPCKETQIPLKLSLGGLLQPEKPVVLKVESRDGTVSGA

Cytochrome P450 2D6 = Cytochrome P450 2D6 (Homo sapiens, UniProt P10635);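 note: CYP2D6 member of a cytochrome P450 panel assay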
Chain of Cytochrome P450 2D6 (P10635 whole entry): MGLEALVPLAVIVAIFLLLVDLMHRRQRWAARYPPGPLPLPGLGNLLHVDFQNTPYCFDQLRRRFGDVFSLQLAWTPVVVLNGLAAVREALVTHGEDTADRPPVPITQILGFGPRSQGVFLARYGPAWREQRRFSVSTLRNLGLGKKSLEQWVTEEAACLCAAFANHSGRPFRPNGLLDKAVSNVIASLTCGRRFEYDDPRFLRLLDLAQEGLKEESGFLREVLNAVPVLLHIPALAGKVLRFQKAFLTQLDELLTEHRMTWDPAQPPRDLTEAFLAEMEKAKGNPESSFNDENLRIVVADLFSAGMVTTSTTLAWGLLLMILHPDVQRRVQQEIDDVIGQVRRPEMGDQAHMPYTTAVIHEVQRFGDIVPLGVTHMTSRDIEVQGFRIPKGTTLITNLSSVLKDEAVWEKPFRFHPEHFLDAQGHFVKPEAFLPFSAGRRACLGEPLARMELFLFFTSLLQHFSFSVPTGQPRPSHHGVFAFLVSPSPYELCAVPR

H9c2 = assay: cells; format: functional, cell-based; conditions: Rattus norvegicus, H9c2, Myocardium;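 note: confirmatory concentration-response retest of ultra-high-throughput screening hits for modulation of myocardial damage; cell death induced by hydrogen peroxide oxidative stress; compound pretreatment for 60 min then peroxide exposure for 2 h; potency is for protecting the cells against peroxide damage rather than for killing them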
Vero = assay: cells; format: functional; conditions: Chlorocebus sabaeus
Cytochrome P450 2C9 = Cytochrome P450 2C9 (Homo sapiens, UniProt P11712)
Chain of Cytochrome P450 2C9 (P11712 whole entry): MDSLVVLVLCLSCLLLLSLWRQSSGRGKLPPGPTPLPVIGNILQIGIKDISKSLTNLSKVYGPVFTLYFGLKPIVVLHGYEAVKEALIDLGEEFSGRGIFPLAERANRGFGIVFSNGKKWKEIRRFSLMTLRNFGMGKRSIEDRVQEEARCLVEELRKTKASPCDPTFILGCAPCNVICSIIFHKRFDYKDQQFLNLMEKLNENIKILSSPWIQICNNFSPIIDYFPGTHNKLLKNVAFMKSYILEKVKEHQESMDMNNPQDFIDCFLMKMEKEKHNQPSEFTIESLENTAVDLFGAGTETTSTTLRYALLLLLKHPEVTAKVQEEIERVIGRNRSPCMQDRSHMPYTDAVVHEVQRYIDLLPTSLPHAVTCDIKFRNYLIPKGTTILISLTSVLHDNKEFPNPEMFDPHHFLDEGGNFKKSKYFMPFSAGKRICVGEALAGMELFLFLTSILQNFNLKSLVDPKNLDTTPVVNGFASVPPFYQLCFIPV

[1] = inhibitors of firefly luciferase expression or activity, dose response, H4 neuroglioma cells, luminescence (AID 1990); format: functional, cell-based
[2] = inhibitors of SNCA 5'UTR-driven reporter translation, confirmation, H4 neuroglioma cells, luminescence (AID 1988); format: functional, cell-based
[3] = Luminescence Cell-Based Dose Response HTS to Identify Inhibitors of 5'UTR Stem-Loop Driven Prion Protein mRNA Translation in H4 Neuroglioblastoma Cells. [Related pubchem assays: 1827 (Project Summary), 1813 (Primary HTS)]; format: functional
[4] = target: T1, Microphthalmia-associated transcription factor (Homo sapiens, UniProt O75030); assay: TRPM1 promoter luciferase signal decrease, dose response, MITF inhibitor project, cell-based, SK-MEL-5, cherry-picked, set 3 (AID 493073); format: functional
T1 sequence (O75030 whole entry): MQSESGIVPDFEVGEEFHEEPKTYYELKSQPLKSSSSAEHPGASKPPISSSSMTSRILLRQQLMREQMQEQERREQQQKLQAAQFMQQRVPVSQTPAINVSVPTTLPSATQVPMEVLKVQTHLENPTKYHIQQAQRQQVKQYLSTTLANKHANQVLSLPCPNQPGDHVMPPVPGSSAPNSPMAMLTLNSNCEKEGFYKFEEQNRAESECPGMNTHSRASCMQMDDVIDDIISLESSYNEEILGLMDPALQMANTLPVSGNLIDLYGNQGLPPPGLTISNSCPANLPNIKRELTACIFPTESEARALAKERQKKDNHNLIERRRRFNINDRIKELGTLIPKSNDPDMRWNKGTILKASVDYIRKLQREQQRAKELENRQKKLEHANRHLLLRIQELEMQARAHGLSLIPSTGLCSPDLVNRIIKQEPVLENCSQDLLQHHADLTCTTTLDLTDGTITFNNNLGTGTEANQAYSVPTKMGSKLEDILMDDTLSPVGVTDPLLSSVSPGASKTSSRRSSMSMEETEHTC

[5] = Luminescence Cell-Based Dose Confirmation HTS to Identify Inhibitors of Platelet Dense Granule Release. [Related pubchem assays: 1663 (Primary HTS), 1678 (Summary of Project)]; format: functional
[6] = target: Luciferin 4-monooxygenase (Photinus pyralis, UniProt P08659); assay: firefly luciferase enzyme inhibitors, dose response, biochemical, luminescence (AID 1891)
Chain of Luciferin 4-monooxygenase (P08659 whole entry): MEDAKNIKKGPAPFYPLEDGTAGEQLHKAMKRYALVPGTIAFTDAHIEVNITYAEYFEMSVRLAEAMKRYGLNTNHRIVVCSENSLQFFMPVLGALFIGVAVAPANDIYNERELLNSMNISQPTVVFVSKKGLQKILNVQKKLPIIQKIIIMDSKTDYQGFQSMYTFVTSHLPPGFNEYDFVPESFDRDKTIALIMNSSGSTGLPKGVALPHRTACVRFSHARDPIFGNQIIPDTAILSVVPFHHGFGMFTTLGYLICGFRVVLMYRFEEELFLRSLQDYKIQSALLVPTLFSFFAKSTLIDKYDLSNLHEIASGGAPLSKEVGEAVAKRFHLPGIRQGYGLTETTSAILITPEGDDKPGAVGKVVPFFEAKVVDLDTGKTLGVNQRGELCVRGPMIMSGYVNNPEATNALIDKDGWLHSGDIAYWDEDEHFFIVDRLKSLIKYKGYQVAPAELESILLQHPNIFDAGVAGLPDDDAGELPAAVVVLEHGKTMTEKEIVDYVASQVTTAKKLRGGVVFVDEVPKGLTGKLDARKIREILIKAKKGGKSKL

[7] = Shn3 3'UTR reporter inhibitors, dose response, cell-based, Clone20 osteoblasts, firefly luciferase, cherry-picked (AID 624132); format: functional;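 note: firefly luciferase luminescence from reporter carrying the Shn3 3'UTR in osteoblasts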
[8] = tested on: Streptococcus sp. 'group A'; assay: growth inhibition of control SK(-) GAS strain, dose response, counter-screen for streptokinase expression inhibitor project, luminescence, kanamycin, BacTiterGlo, confirmation (AID 1900); format: functional, organism-based
Streptokinase A = target: T2, Streptokinase A (Streptococcus pyogenes serotype M1, UniProt P10520); assay: S. pyogenes streptokinase expression inhibitors, potency, dose response, plasminogen activation absorbance, OD405 (AID 1914); format: functional, Streptococcus pyogenes M1 GAS;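 note: secreted streptokinase activity via plasminogen activation per viability signal from cell pellet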
T2 sequence (P10520 whole entry): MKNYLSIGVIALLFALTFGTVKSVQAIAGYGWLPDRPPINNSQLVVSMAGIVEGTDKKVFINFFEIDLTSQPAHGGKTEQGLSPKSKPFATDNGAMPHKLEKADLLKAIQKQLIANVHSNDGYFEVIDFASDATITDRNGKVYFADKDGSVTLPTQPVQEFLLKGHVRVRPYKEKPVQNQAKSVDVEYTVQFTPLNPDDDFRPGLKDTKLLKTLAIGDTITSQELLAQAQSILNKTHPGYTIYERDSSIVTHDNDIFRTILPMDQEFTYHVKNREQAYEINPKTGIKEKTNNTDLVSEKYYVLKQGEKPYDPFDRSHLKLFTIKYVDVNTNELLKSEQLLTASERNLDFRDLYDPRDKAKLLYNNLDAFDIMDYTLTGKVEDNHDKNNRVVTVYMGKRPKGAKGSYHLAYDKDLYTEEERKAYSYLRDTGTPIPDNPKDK

Streptococcus = assay: Group A Streptococcus viability loss, dose response, counter-screen for streptokinase expression inhibitor project, luminescence, BacTiterGlo (AID 1915); format: functional, organism-based;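 note: potency for reduction of bacterial viability or growth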
BJ [9] = assay: cytotoxicity toward BJ-TERT fibroblasts, dose response, cell-based, RAS-independent, luminescence (AID 1933); format: functional; conditions: Homo sapiens
BJ [10] = assay: cytotoxicity toward BJ-TERT-LT-ST fibroblasts, dose response, cell-based, RAS-independent, luminescence (AID 1935); format: functional; conditions: Homo sapiens;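 note: BJ fibroblasts immortalized with TERT plus LT and ST oncogenes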
BJ [11] = assay: cells; format: functional, cell-based; conditions: Homo sapiens
[12] = cytotoxicity toward DRD oncogenic fibroblasts, dose response, cell-based, non-viral oncogenic, luminescence (AID 1934); format: functional; conditions: Homo sapiens
[13] = cytotoxicity toward NIH3T3 fibroblasts, dose response, counter-screen, cell-based, ATP luminescence, mouse fibroblasts (AID 2010); format: functional;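 note: cells exposed to compound for about 90 hours before reading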
[14] = inhibitors of intracellular T. cruzi replication, confirmation, NIH3T3 host cells, beta-gal luminescence (AID 2044); format: functional, cell-based;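 note: intracellular parasites grown in NIH/3T3 mouse fibroblasts as host cells; luminescent beta-galactosidase reporter signal from transgenic T. cruzi replicating inside host cells; inhibitors lower the luminescence signal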
INS1 = assay: beta cell apoptosis inhibitors, cytokine rescue, dose response, luminescence, retest (AID 449756); format: functional, cell-based; conditions: Rattus norvegicus;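 note: cell death triggered by IL-1 beta plus TNF-alpha plus IFN-gamma mixture; protective hits raise ATP signal compared with cytokine alone wells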

Structure (SMILES): C[C@@H]1CCCCO[C@H](CN(C)S(=O)(=O)c2cccs2)[C@H](C)CN([C@@H](C)CO)C(=O)c2cc(NC(=O)CCC(F)(F)F)ccc2O1
- AC50 (Paired box protein Pax-8): 27.6 µM (active)

Structure (SMILES): COc1ccccc1-c1nc(Nc2ccncc2)c2ccccc2n1
- AC50 (Cytochrome P450 3A4): 3.16 µM (inconclusive)
- AC50 (Cytochrome P450 2D6): 25.1 µM (inconclusive)

Structure (SMILES): COc1ccc(CCNC(=O)C(=O)NCC2CCCN2S(=O)(=O)c2ccccc2)cc1OC (stereo unspecified)
- IC50 (H9c2): > 79 µM (inactive)

Structure (SMILES): O=C(CCCN1C(=O)/C(=C/c2ccccc2OC(F)F)SC1=S)Nc1cccnc1
- AC50 (Paired box protein Pax-8): 7.19 µM (active)
- CC50 (Vero): 8.53 µM (active)

Structure (SMILES): Nc1ncnc(N(c2ccccc2)C2CCCCC2)c1[N+](=O)[O-]
- AC50 (Cytochrome P450 3A4): 6.31 µM (inconclusive)

Structure (SMILES): O=C(NCC1CCCO1)c1onc(CSc2ccccc2F)c1C(=O)O (stereo unspecified)
- AC50 (Cytochrome P450 3A4): 25.1 µM (inconclusive)
- AC50 (Cytochrome P450 2C9): 6.31 µM (inconclusive)

Structure (SMILES): COc1ccccc1-c1cc(NC=O)c2ncc(-c3cccc(C(C)=O)c3)n2c1
- IC50 (H9c2): 10 µM (active)

Structure (SMILES): Cc1cc(NC(=O)CSc2nnc(C3CC3)n2N)no1
- EC50 [1]: > 120 µM (not active)
- EC50 [2]: > 120 µM (not active)
- EC50 [3]: > 120 µM (not active)

Structure (SMILES): c1ccc(C[n+]2cccc3c4ccccc4ccc32)cc1
- AC50 [4]: 3.41 µM (active)

Structure (SMILES): COc1cccc(-c2nn3c(-c4ccco4)nnc3s2)c1
- IC50 (H9c2): > 79 µM (inactive)

Structure (SMILES): CCOC(=O)CCCc1c[nH]c2ccccc12
- AC50 (Cytochrome P450 3A4): 31.6 µM (inconclusive)

Structure (SMILES): CCOC(=O)CC1(C)NC(C(=O)O)C(C)(C)S1 (stereo unspecified)
- CC50 (Vero): > 25 µM (active)

Structure (SMILES): Cn1cc(CN(CCO)Cc2cccs2)c(-c2cccc(Cl)c2)n1
- EC50 [5]: > 112 µM (not active)
- EC50 [6]: > 112 µM (not active)
- AC50 [7]: 3.25 µM (active)

Structure (SMILES): CCN1CCc2c(sc(NC(=O)c3ccc(S(=O)(=O)N4CCCCCC4)cc3)c2C(=O)NC)C1
- AC50 [4]: 16.6 µM (active)

Structure (SMILES): COc1ccc(/C=C/C(=O)NC(=S)NNC(=O)[C@H]2C[C@@H]2c2ccccc2)cc1OC
- EC50 [8]: 0.57 µM (active)
- EC50 (Streptokinase A): > 150 µM (not active)
- EC50 (Streptococcus): 20.4 µM (active)
- CC50 (Vero): > 25 µM (active)

Structure (SMILES): C/C(=N\NC(=S)Nc1ccc(F)cc1)C1CC1
- AC50 (Cytochrome P450 3A4): 14.1 µM (inconclusive)

Structure (SMILES): Cc1nn(C)c(C)c1/C=C(/C(=O)C(C)(C)C)n1cncn1
- EC50 [2]: > 120 µM (not active)
- EC50 [3]: > 120 µM (not active)

Structure (SMILES): CSc1nsc(SCc2ccc(Cl)cc2)n1
- EC50 (BJ [9]): > 150 µM (not active)
- EC50 (BJ [10]): > 150 µM (inconclusive)
- EC50 (BJ [11]): > 150 µM (not active)
- EC50 [12]: > 150 µM (not active)

Structure (SMILES): COC(=O)c1ccccc1NC(=O)c1ccc2nccnc2c1
- IC50 (H9c2): 13.3 µM (active)

Structure (SMILES): COCCn1ccc2c(OCC(=O)Nc3ccccc3OC)cccc2c1=O
- IC50 (H9c2): > 79 µM (inactive)

Structure (SMILES): COCCn1c(=O)cnc2cnc(Oc3ccc(OC)cc3)nc21
- AC50 (Cytochrome P450 3A4): 15.8 µM (inconclusive)

Structure (SMILES): COc1cc2cc3c4cc(OC)c(OC)cc4cc[n+]3c(C)c2cc1OC
- AC50 (Cytochrome P450 3A4): 10 µM (inconclusive)

Structure (SMILES): COc1ccc(N(Cc2cc3cc(OC)ccc3nc2O)C(=O)c2cccnc2)cc1
- IC50 (H9c2): > 79 µM (inactive)

Structure (SMILES): Cc1ccc(C(=O)N/C(=C\c2ccc(-c3cccc([N+](=O)[O-])c3)o2)C(=O)NCCCN2CCOCC2)cc1
- CC50 (Vero): > 25 µM (active)

Structure (SMILES): Cc1ccc(Cn2c(SCc3cccnc3)nc3c2c(=O)n(C)c(=O)n3C)cc1
- EC50 [1]: > 120 µM (not active)
- EC50 [2]: > 120 µM (not active)
- EC50 [3]: > 120 µM (not active)

Structure (SMILES): COc1cc(-c2cc3nc4ccccc4n3c(N)c2C#N)cc(OC)c1OC
- EC50 [1]: 17.2 µM (active)
- EC50 [2]: > 120 µM (not active)
- EC50 [3]: 16.4 µM (active)

Structure (SMILES): CC(OC(=O)Cn1[nH]c(=O)c2ccccc2c1=O)C(=O)Nc1cccc(Cl)c1 (stereo unspecified)
- IC50 (H9c2): > 79 µM (inactive)

Structure (SMILES): COc1ccc(-c2csc(Cc3nnc(N4CCOCC4)n3-c3ccccc3)n2)cc1OC
- EC50 [1]: > 120 µM (not active)
- EC50 [2]: 19.4 µM (active)
- EC50 [3]: > 120 µM (not active)

Structure (SMILES): O=C(c1ccco1)N1CCC2(CCCN(Cc3ccccc3)C2)CC1
- AC50 (Cytochrome P450 3A4): 12.6 µM (inconclusive)

Structure (SMILES): COc1cc(OC)cc(C(=O)Nc2ccc(-c3nc4ccccc4o3)cc2)c1
- IC50 (H9c2): > 79 µM (inactive)
- EC50 [13]: > 16 µM (not active)
- EC50 [14]: 1.06 µM (active)

Structure (SMILES): O=C1NC(=O)C(=CNc2ccccc2[N+](=O)[O-])C(=O)N1
- EC50 [1]: > 120 µM (not active)
- EC50 [2]: > 120 µM (not active)
- EC50 [3]: 20.7 µM (active)

Structure (SMILES): Cc1ccc(-n2nc3c(=O)n(CCCC(=O)NCc4ccco4)nc(C)c3c2C)cc1
- EC50 [1]: 17.1 µM (active)
- EC50 [2]: > 120 µM (not active)
- EC50 [3]: 43 µM (active)

Structure (SMILES): Oc1c(/C=N/c2cccc(C(F)(F)F)c2)cnn1-c1cccc(Cl)n1
- AC50 (Cytochrome P450 3A4): 25.1 µM (inconclusive)
- AC50 (Cytochrome P450 2C9): 10 µM (inconclusive)

Structure (SMILES): COc1ccc(OC)c(C(=O)/C=C/c2cccnc2)c1
- CC50 (Vero): 17 µM (active)

Structure (SMILES): O=C(N/N=C/c1ccccc1O)C1CC(=O)N(c2ccc(Cl)cc2)C1 (stereo unspecified)
- AC50 (INS1): 3.69 µM (active)
- EC50 [1]: 15.2 µM (active)
- EC50 [2]: 7.99 µM (active)
- EC50 [3]: 24.1 µM (active)

Structure (SMILES): COc1ccc(Nc2nc(-c3sc(C)nc3C)cs2)c(OC)c1
- EC50 (BJ [9]): 62.3 µM (active)
- EC50 (BJ [10]): > 150 µM (inconclusive)
- EC50 (BJ [11]): 4.21 µM (inconclusive)
- EC50 [12]: 4.81 µM (active)

Structure (SMILES): O=C1NC(=S)NC(=O)C1=Cc1c[nH]c2ccccc12
- CC50 (Vero): > 25 µM (active)

Structure (SMILES): O=C1NC(c2cccs2)Nc2ccccc21 (stereo unspecified)
- IC50 (H9c2): 18.2 µM (active)
